Data on five molecules can be found in patent US9919021B2, “Brain permeant peptidomimetic beta-secretase 1 inhibitors for the treatment or prophylaxis of neurological disorders or conditions” (IBET—INSTITUTO DE BIOLOGIA EXPERIMENTAL E TECNOLOGICA, priority 2016, dated 2018).

The structures appear in SMILES notation. Read-outs that look alike come from different tables or passages of the source. Starred links: 1 amine or outer side, 2 acyl side, 3 side chain; linkers in the order of their positions; H or OH if unused. Non-standard residues stand in square brackets, D forms with d. Residues, ends and D or L forms follow the SMILES beside them. LeuΨ(S-CHOHCH2)Ala = CC(C)C[C@H](N[*:1])[C@@H](O)C[C@@H](C)C(=O)[*:2]

Data set [1] addresses T1, BACE-2 (human, recombinant) (Homo sapiens, UniProt Q9Y5Z0).
T1 construct: purchased Enzo
T1 sequence (Q9Y5Z0 63-518): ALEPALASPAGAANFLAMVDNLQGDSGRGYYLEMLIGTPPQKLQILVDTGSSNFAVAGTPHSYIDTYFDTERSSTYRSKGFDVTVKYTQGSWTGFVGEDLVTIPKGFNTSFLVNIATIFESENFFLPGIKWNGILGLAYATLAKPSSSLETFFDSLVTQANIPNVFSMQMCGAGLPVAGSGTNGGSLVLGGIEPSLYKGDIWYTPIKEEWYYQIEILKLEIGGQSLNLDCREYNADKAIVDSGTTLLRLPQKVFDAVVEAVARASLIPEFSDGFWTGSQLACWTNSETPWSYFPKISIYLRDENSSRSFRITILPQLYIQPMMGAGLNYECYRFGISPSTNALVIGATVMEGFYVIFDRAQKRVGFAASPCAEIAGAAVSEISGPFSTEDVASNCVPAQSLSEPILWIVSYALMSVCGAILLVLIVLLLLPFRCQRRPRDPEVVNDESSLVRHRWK
Kind of data set: BACE-2 activity assay (fluorogenic substrate, HPLC-FLU). Format: biochemical. The conditions noted are these: pH 4.5, 37° C.; mean value ± standard deviation, n = 3; read-out: Ki^app BACE-2.

The nature of data set [2]: in vitro. The data set is classed as in vitro ADME, mice. The following applies: mouse, brain homogenate, t1/2 brain. As to the method:
An assay for in vitro metabolic stability was accomplished in order to test the influence of N-terminal acylation on the metabolization profile of the compounds. Therefore, compounds were prepared at 50 μM in phosphate-buffered saline (PBS) with 2% DMSO. An amount of 10 μL of the solution was added to human serum (40 μL) or to 10% of mice brain homogenate in PBS with 0.5% Triton X-100 (40 μL). All compounds were tested using the same biological samples of human serum and mice brain homogenate to ensure identical deactivation conditions. The solutions were incubated during different time periods at 37° C., after which metabolization was stopped by adding one volume of acetonitrile. Precipitated serum and brain proteins were removed by centrifugation at 14 000g for 10 min. […] The remaining peptide in the supernatant was quantified by HPLC-FLU (Merck Hitachi, Elite LaChrom), (exλ=255 nm and emλ=285 nm, to detect compounds containing phenylalanine, and exλ=275 nm and emλ=307 nm whenever tyrosine is present). Chromatographic conditions were as described for determination of enzyme activities. A calibration curve was built for each compound, and the decay in the concentration of the peptide in the incubated samples was followed until approximately 50% decay. The metabolization kinetics of the synthetic peptides followed a monophasic behaviour in vitro.

A short description of data set [3]: in vivo pharmacokinetic study in mice after intravenous Ia. The conditions noted are these: for detection in brain samples: after intravenous Ia 0.53 mg/kg, HPLC-FLU and LC-MS.
On the set-up of data set [4]: species or system Wistar rats. The following applies: in vivo, iv; for detection in serum samples: rat. As to the method: Female mice (n=12, 8-12 weeks, weighing 22-37 g) and male Wistar rats (n=8, 8-12 weeks, weighing 182-201 g) were purchased from Harlan Ibérica, Barcelona, Spain. All animals received a standard diet and water ad libitum. Experiments were conducted according to the Home Office Guidance in the Operation of Animals (Scientific Procedures) Act 1986, published by Her Majesty's Stationary Office, London, UK and the Institutional Animal Research Committee Guide for the Care and Use of Laboratory Animals published by the US National Institutes of Health (NIH Publication No. 85-23, revised 1996), as well as to the currently adopted EC regulations (2010/63/EU). Finally, the studies are in compliance with the ARRIVE Guidelines for Reporting Animal Research' summarized at www.nc3rs.org.uk. Before experiments animals were fasted for 24 h.
PBS was used to prepare a solution of Ia for intravenous administration at a dose of 0.53 mg/kg. Experiments were done in triplicate. Mice and Wistar rats were sacrificed at 0.5, 1 and 2 hours after dosing and were previously anesthetized with sodium pentobarbital (6 mg/kg i.p.) for collection of blood by cardiac puncture and brain tissue was perfused by intraventricular injection of 10 mL of chilled saline solution to remove residual blood.
Serum was isolated from the blood samples by centrifugation at 657 g for 10 min, at 4° C. Serum proteins were precipitated with one volume of acetonitrile and were removed by centrifugation at 14000 g for 10 min. Brain was promptly removed and washed with PBS and blotted dry. Meninges were carefully removed. In the case of Wistar rats only cortex and hippocampus were collected while for mice the whole brain was used. The brain samples were homogenized with 2 volumes (V/w) of PBS/acetonitrile/Triton X-100 (50/50/0.5) using firstly a pestle and then a pipette and finally a sonicator. Compound Ic was added as internal standard to best mimic the recovery of compound Ia. The pellet was removed centrifuging at 14000 g for 10 min. Samples were purified by preparative reverse-phase HPLC Using a C18 column (Jupiter, Phenomenex) 250×21.2 mm, 5 μm. Chromatographic conditions were as follow: eluent (A) water/TFA (99.9:0.1, V/V), (B) acetonitrile/water/TFA (90:9.9:0.1, V/V). The linear gradient was started at 80% A, graded to 68% for 2 min and then was kept at 68% for 17 min finally grading to 0% A for 5 min. The flow rate was 10 mL/min and the column was at room temperature. […]
For identification of Ia and its metabolite in Wistar rat brain, samples were analyzed using a 4800plus MALDI-TOF/TOF (AB Sciex) mass spectrometer in the positive reflector MS and MS/MS modes with 3200 laser shots per spectrum and data was collected using the 4000 Series Explorer Software v.3.5.3 (Applied Biosystems). […]

Data set [5] concerns the target T2, BACE-1 (human, recombinant) (Homo sapiens, UniProt P56817).
T2 construct: purchased Sigma-Aldrich
Kind of data set: BACE-1 activity assay (fluorogenic substrate, HPLC-FLU). Format: biochemical. The source says:
The program started at 90% A for two min, graded to 70% A during ten min and finally to 0% A during two min.

The conditions of data set [6]: mouse, in vivo, iv.
Where [7] appears, read: pro-BACE-1, pH 4.5, 37° C., mean value ± standard deviation, n = 3, read-out: Ki BACE-1.

T2 sequence (P56817 46-501): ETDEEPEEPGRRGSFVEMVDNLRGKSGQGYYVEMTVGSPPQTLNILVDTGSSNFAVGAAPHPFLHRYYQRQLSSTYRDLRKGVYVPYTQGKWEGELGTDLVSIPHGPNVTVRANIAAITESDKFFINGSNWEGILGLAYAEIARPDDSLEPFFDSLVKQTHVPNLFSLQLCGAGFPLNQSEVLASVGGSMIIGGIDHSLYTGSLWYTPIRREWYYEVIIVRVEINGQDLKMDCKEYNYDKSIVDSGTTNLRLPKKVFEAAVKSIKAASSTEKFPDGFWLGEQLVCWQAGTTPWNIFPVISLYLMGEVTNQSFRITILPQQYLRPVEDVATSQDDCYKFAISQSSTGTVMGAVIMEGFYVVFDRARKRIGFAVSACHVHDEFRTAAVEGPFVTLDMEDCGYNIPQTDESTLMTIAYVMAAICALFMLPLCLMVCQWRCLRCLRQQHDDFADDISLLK

In the case of `CC(=O)N[C@@H](CCC(=O)O)C(=O)N[C@@H](CC(C)C)C(=O)N[C@@H](CC(=O)O)C(=O)N[C@@H](CC(C)C)[C@@H](O)C[C@@H](C)C(=O)N[C@H](C(=O)N[C@@H](Cc1ccccc1)C(=O)N[C@@H](Cc1ccc(O)cc1)C(=O)N[C@@H](C)C(=O)N[C@@H](CCC(=O)O)C(=O)N[C@@H](CC(=O)O)C(N)=O)C(C)C` [Ia] (Ac-ELD[LeuΨ(S-CHOHCH2)Ala]VFYAED-NH2), the Ki in data set [1] was determined as 18.3 ± 0.5 nM; in data set [5] (setting [7]), 2 ± 0.6 nM. Also, the half-life (as a rule, the time in which the quantity being followed falls by half) at 10 µM in data set [2] was 3.4 h. For the same molecule, the “detection in brain samples” value in data set [3] was “could not be detected”. In addition, the “detection in serum samples” value is on record as “not detected” in data set [3] (half an hour after intravenous Ia 0.53 mg/kg, HPLC-FLU) and “detected” in data set [4]. For the same molecule, the “detection in rat cortex” value in data set [4] was “not detected”.

As for `CC(C)C[C@H](NC(=O)[C@@H](N)CCC(=O)O)C(=O)N[C@@H](CC(=O)O)C(=O)N[C@@H](CC(C)C)[C@@H](O)C[C@@H](C)C(=O)N[C@H](C(=O)N[C@@H](Cc1ccccc1)C(=O)N[C@@H](Cc1ccc(O)cc1)C(=O)N[C@@H](C)C(=O)N[C@@H](CCC(=O)O)C(=O)N[C@@H](CC(=O)O)C(N)=O)C(C)C` [Ic] (H-ELD[LeuΨ(S-CHOHCH2)Ala]VFYAED-NH2), the figures for the Ki in data set [1], in data set [5] and in data set [5] (setting [7]) were 14.2 ± 2.2 nM, 2 ± 0.1 nM and 1.9 ± 0.2 nM, respectively. The half-life at 10 µM in data set [2] is 2.3 ± 0.1 h.

As to `CC(C)C[C@H](NC(=O)[C@@H](N)CCC(=O)O)C(=O)N[C@@H](CC(=O)O)C(=O)N[C@@H](CC(C)C)[C@@H](O)C[C@@H](C)C(=O)N[C@H](C(=O)N[C@@H](Cc1ccccc1)C(=O)N[C@@H](Cc1ccccc1)C(=O)N[C@@H](C)C(=O)N[C@@H](CCC(=O)O)C(=O)N[C@@H](CC(=O)O)C(N)=O)C(C)C` [Id] (H-ELD[LeuΨ(S-CHOHCH2)Ala]VFFAED-NH2), the Ki in data set [1] was determined as 7.3 ± 0.9 nM; in data set [5] (setting [7]), 2 ± 0.1 nM.

In the case of `CC(C)C[C@H](NC(=O)[C@@H](N)CCC(=O)O)C(=O)N[C@@H](CC(=O)O)C(=O)N[C@@H](CC(C)C)[C@@H](O)C[C@@H](C)C(=O)N[C@H](C(=O)N[C@@H](Cc1ccccc1)C(=O)N[C@@H](Cc1ccc(O)cc1)C(=O)N[C@@H](C)C(=O)N[C@@H](CCC(=O)O)C(=O)N[C@@H](CC(=O)O)C(=O)O)C(C)C` [Ig] (H-ELD[LeuΨ(S-CHOHCH2)Ala]VFYAED-OH), the Ki stood at 12.7 ± 1.9 nM in data set [1] and 1.7 ± 0.2 nM in data set [5] (setting [7]). This molecule also showed a half-life at 10 µM in data set [2] of 6 ± 0.3 h. Also, in data set [3], the “detection in brain samples” value is “found within therapeutic concentrations”. In data set [4], the “detection in rat cortex” value is “detected”. The “detection in serum samples” value in data set [4] is “detected”. Further, in data set [6], the “concentration in mice brain” value is “approximately 20 nM”.

Turning to `CC(C)C[C@H](NC(=O)[C@@H](N)CCC(=O)O)C(=O)N[C@@H](CC(=O)O)C(=O)N[C@@H](CC(C)C)[C@@H](O)C[C@@H](C)C(=O)N[C@H](C(=O)N[C@@H](CCC(=O)O)C(=O)N[C@@H](Cc1ccccc1)C(=O)O)C(C)C` [OM00-3, reference compound] (H-ELD[LeuΨ(S-CHOHCH2)Ala]VEF-OH), the Ki in data set [1] is 3 ± 0.3 nM. The half-life at 10 µM in data set [2] is 5.8 ± 0.7 h.
